The values below come from patent publication US5919653A, “Nucleic acids encoding a human glycine transporter” (Allelix Neuroscience Inc., priority 1996, dated 1999).

The target of the assay is human GlyT-2 glycine transporter (clone pHGT2, SEQ ID 20 nucleic acid / SEQ ID 21 protein) (Homo sapiens, UniProt Q9Y345, I279N/I611V). The experiment in a line: cell-based.
Sequence of human GlyT-2 glycine transporter (clone pHGT2, SEQ ID 20 nucleic acid / SEQ ID 21 protein) (Q9Y345 whole entry I279N/I611V): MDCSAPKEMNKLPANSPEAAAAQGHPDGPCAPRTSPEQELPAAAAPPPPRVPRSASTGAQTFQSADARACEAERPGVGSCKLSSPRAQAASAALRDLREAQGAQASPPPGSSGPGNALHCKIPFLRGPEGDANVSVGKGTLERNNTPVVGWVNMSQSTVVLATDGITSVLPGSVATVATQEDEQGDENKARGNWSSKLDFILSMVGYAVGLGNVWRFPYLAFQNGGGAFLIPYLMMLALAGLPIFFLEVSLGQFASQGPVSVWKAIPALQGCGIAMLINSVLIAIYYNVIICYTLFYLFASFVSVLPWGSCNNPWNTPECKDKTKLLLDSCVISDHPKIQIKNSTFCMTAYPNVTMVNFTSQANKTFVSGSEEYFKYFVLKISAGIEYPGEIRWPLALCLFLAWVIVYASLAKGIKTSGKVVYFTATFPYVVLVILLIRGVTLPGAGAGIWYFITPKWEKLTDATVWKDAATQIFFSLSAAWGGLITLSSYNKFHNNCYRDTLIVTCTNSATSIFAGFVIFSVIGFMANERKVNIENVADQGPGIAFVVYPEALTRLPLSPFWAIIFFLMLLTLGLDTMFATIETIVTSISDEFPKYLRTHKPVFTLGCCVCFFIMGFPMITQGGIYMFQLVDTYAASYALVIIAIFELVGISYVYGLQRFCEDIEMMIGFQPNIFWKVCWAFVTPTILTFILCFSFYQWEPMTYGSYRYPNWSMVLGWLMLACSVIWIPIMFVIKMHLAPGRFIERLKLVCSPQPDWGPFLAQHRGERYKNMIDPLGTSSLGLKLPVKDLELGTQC

Method: Transient GlyT-transfected cells or control cells grown in accordance with Example 5 were washed three times with HEPES buffered saline (HBS). The control cells were treated precisely as the GlyT-transfected cells except that the transfection procedure omitted any cDNA. […] The cells were then incubated another 20 minutes at 37° C., after which the cells were washed three times with ice-cold HBS. Scintillant was added to the cells, the cells were shaken for 30 minutes, and the radioactivity in the cells was counted using a scintillation counter. Data were compared between the cells contacted or not contacted by a prospective agent, and, where relevant, between cells having GlyT-1 activity versus cells having GlyT-2 activity, depending on the assay being conducted.
Data points represent means±SEM from an experiment performed in quadruplicate.

What is called IC50 is the concentration that inhibits the measured activity by half. Read a low IC50 as higher potency. The compound `NCC(=O)O` [glycine] showed a concentration for half-maximal inhibition (IC50) of 40 µM.
